Assay results published in patent publication US9790200B2, “Dihydroquinoline pyrazolyl compounds” (Hoffmann-La Roche Inc., priority 2015, dated 2017).

Columns and labels:
[1] = molecular target: T1, human CYP11B1 (Homo sapiens, UniProt P15538); test: G-402 cellular enzyme assay, human CYP11B1 (cortisol release, HTRF); format: cell-based; conditions: G-402 cells, 1 μM Deoxycortisol
T1 construct: The expression plasmids contains the ORF for either human/cyno CYP11B1 or CYP11B2; expressed in transfected cells
T1 sequence (P15538 25-503): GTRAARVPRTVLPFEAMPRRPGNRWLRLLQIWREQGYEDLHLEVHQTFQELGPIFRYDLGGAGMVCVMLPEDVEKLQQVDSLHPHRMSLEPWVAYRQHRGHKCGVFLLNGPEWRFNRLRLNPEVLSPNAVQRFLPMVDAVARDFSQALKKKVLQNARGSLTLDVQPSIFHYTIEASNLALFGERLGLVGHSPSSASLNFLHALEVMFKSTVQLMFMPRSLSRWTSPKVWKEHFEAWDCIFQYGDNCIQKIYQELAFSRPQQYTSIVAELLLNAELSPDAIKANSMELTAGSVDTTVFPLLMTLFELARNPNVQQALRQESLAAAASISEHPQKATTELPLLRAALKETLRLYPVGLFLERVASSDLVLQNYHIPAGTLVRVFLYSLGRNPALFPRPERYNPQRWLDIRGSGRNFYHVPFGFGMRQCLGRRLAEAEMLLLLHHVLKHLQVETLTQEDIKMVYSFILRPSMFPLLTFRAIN
Text: Herein we identified the use of the G-402 cell line as a host cell to ectopically express (transiently or stably) enzymes of the CYP11 family. Specifically we developed stable G-402 cells expressing ectopically human CYP11B1, human CYP11B2, human CYP11A1, cynmolgus CYP11B1 or cynomolgus CYP11B2 enzyme activity. Importantly the identified cell line G-402 expresses co-factors (adrenodoxin and adrenodoxin reductase) important for the activity of the CYP11 family and no relevant enzyme activity of the CYP11 family (in comparison to H295R cells) was detected in these cells. Therefore the G-402 cell line is uniquely suited as a host cell for the ectopic expression of enzymes from the CYP11 family.
G-402 cells can be obtained from ATCC (CRL-1440) and were originally derived from a renal leiomyoblastoma.
The expression plasmids contains the ORF for either human/cyno CYP11B1 or CYP11B2 under the control of a suitable promoter (CMV-promoter) and a suitable resistance marker (neomycin). […] Individual cell-clones are then selected and assessed for displaying the desired enzymatic activity using 11-Deoxycorticosterone (Cyp11B2) or 11-Deoxycortisol (Cyp11B1) as a substrate. […]
[formula] wherein, A is the maximum y value, B is the EC50 factor determined using XLFit, C is the minimum y value and D is the slope value. […]

[2] = tested on: rat model of chronic kidney disease; conditions: cited from earlier work; for plasma aldosterone: FAD286: 4 weeks of treatment, spironolactone: 4 and 8 weeks of treatment; for angiotensin II and salt-stimulated PAI-1 mRNA expression in the aorta and the heart / renal effects of angiotensin II and high salt (albuminuria, azotemia, renovascular hypertrophy, glomerular injury, PAI-1, osteopontin mRNA, tubulointerstitial fibrosis): rat, in vivo
[3] = tested on: rats with experimental heart failure; conditions: rat, in vivo; cited from earlier work
[4] = tested on: patients with primary aldosteronism; conditions: cited from earlier work

SMILES	plasma aldosterone [2]	angiotensin II and salt-stimulated PAI-1 mRNA expression in the aorta and the heart [2]	renal effects of angiotensin II and high salt (albuminuria, azotemia, renovascular hypertrophy, glomerular injury, PAI-1, osteopontin mRNA, tubulointerstitial fibrosis) [2]	further results
CN1C(=O)CCc2c1ccc(-c1n[nH]cc1COC1CN(C(=O)c3cnn(C)c3)C1)c2F [Example 66, 5-Fluoro-1-methyl-6-[4-[[1-(1-methylpyrazole-4-carbonyl)azetidin-3-yl]oxymethyl]-1H-pyrazol-3-yl]-3,4-dihydroquinolin-2-one]				EC50 [1]: > 30 nM
N#Cc1ccc(C2CCCc3cncn32)cc1 (centres unmarked) [FAD286]	reduced	not	prevented these renal effects	blood pressure and cardiovascular function and structure [3]: improved
N#Cc1ccc([C@H]2CCc3cncn32)c(F)c1 [LCI699]				blood pressure ([4]; human, in vivo): mildly decreased; hypokalemia ([4]; human, in vivo): corrected; circulating aldosterone levels ([4]; orally active): significantly lower
CC(=O)S[C@@H]1CC2=CC(=O)CC[C@]2(C)[C@H]2CC[C@@]3(C)[C@@H](CC[C@@]34CCC(=O)O4)[C@H]12 [spironolactone]	increased	enhanced	prevented these renal effects	
